# Key:
# Test in all cases: biochemical
# Set-up in all cases: DiscoverX KINOMEscan scanMAX competition binding panel, single concentration, percent of control; remaining binding: dose or concentration left out as unconfirmed
# Conditions in all cases: KINOMEscan binding, percent of control; read-out: Table S4_SCANMAX REPORT - related to Fig. 1 / Percent Control
# [1] = target: CAMKK1 (Homo sapiens, UniProt Q8N5S9)
# [2] = target: DDR1 (Homo sapiens, UniProt Q08345)
# [3] = target: T1, DRAK1 (Homo sapiens, UniProt Q9UEE5)
# T1 construct: gene STK17A
# [4] = target: EGFR(L858R,T790M) (Homo sapiens, UniProt P00533, L858R/T790M)
# [5] = target: EPHB4 (Homo sapiens, UniProt P54760)
# EPHB4, sequence (P54760 whole entry): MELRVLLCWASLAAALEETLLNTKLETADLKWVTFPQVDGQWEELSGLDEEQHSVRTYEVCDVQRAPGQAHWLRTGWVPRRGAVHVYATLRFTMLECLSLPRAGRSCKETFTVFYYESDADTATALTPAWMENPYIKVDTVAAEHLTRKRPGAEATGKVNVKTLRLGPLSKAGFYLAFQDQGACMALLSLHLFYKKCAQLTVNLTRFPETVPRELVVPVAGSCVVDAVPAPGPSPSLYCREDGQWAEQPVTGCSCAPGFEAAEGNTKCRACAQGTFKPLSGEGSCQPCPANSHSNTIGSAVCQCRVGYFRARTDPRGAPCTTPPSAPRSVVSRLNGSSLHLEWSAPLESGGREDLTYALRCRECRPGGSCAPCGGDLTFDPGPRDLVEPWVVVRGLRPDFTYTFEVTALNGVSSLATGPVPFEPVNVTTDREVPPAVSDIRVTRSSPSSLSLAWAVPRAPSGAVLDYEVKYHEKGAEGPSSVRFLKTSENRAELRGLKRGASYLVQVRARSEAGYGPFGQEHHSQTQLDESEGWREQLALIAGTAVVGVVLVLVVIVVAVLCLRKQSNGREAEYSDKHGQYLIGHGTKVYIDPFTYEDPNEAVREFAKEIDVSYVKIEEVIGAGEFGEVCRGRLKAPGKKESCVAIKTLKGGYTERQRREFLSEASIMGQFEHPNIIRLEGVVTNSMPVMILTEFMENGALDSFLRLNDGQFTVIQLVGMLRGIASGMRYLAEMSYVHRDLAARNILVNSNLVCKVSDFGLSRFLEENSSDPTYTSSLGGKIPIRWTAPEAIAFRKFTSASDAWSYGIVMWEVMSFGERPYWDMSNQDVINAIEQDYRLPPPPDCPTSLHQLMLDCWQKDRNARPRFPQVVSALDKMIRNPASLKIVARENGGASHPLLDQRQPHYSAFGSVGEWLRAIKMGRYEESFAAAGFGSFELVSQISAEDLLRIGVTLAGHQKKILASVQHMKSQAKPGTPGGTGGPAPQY
# [6] = target: T2, ERK3 (Homo sapiens, UniProt Q16659)
# T2 construct: gene MAPK6
# T2 sequence (Q16659 whole entry): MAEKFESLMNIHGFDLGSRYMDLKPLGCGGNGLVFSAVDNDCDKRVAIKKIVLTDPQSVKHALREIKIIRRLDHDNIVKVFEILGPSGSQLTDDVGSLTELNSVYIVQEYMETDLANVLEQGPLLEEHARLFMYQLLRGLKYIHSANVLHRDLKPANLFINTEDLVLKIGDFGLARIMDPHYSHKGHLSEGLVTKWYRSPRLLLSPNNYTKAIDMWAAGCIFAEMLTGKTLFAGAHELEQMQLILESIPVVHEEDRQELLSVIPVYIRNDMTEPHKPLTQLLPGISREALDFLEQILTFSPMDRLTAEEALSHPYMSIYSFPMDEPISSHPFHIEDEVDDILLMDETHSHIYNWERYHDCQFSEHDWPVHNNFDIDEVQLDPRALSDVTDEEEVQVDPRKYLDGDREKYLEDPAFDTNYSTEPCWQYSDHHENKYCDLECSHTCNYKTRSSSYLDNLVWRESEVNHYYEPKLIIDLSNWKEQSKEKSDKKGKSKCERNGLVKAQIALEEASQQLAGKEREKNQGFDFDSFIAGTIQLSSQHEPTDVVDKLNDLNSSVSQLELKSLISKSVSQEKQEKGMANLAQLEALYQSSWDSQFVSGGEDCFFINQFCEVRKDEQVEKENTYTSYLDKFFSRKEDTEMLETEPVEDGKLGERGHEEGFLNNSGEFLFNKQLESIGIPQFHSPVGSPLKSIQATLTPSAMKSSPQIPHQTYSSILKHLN
# [7] = target: FGR (Homo sapiens, UniProt P09769)
# [8] = target: FLT3(ITD,F691L) (Homo sapiens, UniProt P36888, F691L/ITD)
# FLT3(ITD,F691L), sequence (P36888 564-993 F691L): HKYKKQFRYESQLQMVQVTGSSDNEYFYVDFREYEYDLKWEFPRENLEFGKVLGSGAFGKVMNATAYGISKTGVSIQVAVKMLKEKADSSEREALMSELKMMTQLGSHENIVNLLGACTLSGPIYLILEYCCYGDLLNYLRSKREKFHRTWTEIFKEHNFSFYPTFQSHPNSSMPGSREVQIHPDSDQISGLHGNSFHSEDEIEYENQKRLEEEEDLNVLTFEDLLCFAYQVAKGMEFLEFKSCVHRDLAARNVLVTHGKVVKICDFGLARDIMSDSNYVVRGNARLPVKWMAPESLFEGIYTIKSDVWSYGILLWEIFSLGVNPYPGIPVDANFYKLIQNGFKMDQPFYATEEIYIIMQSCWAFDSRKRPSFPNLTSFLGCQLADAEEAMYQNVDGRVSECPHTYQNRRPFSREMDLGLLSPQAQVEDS
# [9] = target: KIT(V559D) (Homo sapiens, UniProt P10721, V559D)
# [10] = target: T3, PIK4CB (Homo sapiens, UniProt Q9UBF8)
# T3 construct: gene PI4KB
# [11] = target: T4, PIP5K2B (Homo sapiens, UniProt P78356)
# T4 construct: gene PIP4K2B
# [12] = target: PRKD1 (Homo sapiens, UniProt Q15139)
# PRKD1, sequence (Q15139 whole entry): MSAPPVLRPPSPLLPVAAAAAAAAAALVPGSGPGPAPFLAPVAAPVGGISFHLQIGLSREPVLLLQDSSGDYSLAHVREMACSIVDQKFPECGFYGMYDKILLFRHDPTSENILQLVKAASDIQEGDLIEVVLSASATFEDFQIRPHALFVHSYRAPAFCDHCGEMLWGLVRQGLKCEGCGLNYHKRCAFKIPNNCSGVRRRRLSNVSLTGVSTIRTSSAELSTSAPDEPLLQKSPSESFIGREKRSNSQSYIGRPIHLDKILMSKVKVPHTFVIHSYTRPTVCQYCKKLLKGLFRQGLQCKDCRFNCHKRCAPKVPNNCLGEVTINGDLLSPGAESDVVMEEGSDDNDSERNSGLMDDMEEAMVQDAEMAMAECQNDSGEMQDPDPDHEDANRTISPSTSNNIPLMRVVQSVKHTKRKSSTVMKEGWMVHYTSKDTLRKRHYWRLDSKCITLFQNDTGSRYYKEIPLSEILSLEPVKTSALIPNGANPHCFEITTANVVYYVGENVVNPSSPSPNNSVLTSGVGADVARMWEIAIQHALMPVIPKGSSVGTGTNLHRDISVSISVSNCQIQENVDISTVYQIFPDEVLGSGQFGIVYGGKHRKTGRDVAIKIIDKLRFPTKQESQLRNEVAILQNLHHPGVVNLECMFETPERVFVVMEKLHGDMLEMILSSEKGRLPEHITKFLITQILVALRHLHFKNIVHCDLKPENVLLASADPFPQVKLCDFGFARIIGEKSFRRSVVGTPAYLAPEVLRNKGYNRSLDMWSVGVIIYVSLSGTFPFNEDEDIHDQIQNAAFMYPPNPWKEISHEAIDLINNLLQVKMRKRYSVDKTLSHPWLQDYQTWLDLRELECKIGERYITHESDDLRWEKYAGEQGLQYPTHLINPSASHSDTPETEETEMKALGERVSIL
# [13] = target: RAF1 (Homo sapiens, UniProt P04049)
# [14] = target: TAOK1 (Homo sapiens, UniProt Q7L7X3)
# [15] = target: TRPM6 (Homo sapiens, UniProt Q9BX84)
# [16] = target: TYRO3 (Homo sapiens, UniProt Q06418)
# TYRO3, sequence (Q06418 whole entry): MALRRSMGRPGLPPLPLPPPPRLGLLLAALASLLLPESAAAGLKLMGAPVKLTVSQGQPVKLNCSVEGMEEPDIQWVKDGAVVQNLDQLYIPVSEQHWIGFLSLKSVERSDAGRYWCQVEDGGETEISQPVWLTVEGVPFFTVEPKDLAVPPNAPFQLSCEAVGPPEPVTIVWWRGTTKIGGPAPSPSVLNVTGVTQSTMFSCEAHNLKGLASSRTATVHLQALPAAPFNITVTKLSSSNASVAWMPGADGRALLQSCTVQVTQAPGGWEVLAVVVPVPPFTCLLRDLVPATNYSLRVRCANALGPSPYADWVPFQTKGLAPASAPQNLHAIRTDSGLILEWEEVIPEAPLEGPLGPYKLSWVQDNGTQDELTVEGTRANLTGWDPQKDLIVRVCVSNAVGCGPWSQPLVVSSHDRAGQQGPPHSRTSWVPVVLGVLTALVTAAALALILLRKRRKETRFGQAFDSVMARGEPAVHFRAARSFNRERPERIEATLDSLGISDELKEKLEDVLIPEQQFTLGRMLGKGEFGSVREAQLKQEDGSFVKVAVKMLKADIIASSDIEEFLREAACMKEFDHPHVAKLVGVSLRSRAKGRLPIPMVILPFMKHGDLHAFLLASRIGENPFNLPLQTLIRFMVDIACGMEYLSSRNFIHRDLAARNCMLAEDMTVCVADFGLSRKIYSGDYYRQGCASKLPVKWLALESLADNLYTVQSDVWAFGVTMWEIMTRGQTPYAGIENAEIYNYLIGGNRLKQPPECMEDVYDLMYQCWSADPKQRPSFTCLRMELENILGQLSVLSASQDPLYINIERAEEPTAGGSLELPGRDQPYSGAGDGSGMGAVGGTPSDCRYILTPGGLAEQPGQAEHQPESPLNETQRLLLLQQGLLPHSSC
# [17] = target: ULK2 (Homo sapiens, UniProt Q8IYT8)
# [18] = target: T5, p38-gamma (Homo sapiens, UniProt P53778)
# T5 construct: gene MAPK12
# T5 sequence (P53778 whole entry): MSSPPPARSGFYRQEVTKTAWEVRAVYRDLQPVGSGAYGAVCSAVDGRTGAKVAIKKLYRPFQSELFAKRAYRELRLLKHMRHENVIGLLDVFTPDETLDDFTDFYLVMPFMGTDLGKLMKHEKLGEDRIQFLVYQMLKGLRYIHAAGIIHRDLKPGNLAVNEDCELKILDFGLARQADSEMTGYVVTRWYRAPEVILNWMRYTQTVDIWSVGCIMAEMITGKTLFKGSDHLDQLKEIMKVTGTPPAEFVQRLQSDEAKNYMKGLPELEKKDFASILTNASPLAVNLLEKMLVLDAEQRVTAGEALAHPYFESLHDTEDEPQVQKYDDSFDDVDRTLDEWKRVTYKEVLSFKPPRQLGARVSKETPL
# CAMKK1, sequence (Q8N5S9 whole entry): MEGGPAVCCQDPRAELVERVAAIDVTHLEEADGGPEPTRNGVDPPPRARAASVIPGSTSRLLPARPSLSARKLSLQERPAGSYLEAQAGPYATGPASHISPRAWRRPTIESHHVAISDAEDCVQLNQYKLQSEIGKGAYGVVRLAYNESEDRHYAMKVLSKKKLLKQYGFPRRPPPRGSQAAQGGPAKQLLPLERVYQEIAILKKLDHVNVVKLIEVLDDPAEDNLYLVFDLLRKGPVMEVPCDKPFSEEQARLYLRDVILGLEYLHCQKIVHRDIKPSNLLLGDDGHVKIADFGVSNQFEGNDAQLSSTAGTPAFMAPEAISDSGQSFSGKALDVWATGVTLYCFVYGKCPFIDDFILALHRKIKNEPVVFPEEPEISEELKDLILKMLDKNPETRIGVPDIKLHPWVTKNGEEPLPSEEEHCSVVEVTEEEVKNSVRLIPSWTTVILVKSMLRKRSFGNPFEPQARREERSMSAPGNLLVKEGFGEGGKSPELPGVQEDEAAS
compound,measurement,setting,value
c1ccc2c(c1)Sc1ccccc1N2CCN1CCOCC1 [J54],remaining binding,[1],100%
same,remaining binding,[2],100%
same,remaining binding,[3],89%
same,remaining binding,[4],100%
same,remaining binding,[5],100%
same,remaining binding,[6],73%
same,remaining binding,[7],100%
same,remaining binding,[8],65%
same,remaining binding,[9],100%
same,remaining binding,[10],100%
same,remaining binding,[11],51%
same,remaining binding,[12],97%
same,remaining binding,[13],100%
same,remaining binding,[14],100%
same,remaining binding,[15],100%
same,remaining binding,[16],100%
same,remaining binding,[17],100%
same,remaining binding,[18],58%
